Legend:
[1] = test system: T. cruzi NINOA bloodstream trypomastigotes; assay: microbe, parasite or virus in culture; details: Trypanosoma cruzi, 24 h, read-out: LC50 Bloodstream Trypomastigotes T. cruzi NINOA
Text: (§1) For biological evaluation, the compounds Z2 (ZINC9873043), Z3 (ZINC9870651), Z5 (ZINC9715287), and Z6 (ZINC9861447) were selected and purchased from Molport https://www.molport.com (accessed on: 03 March 2018). For evaluation of trypanocidal activity of the selected compounds, two strains (NINOA and INC-5) in the epimastigote or trypomastigote stage of T. cruzi were used. Each strain was used to infect CD-1 mice (18–20 g) intraperitoneally with a concentration of 1 × 10^6 trypomastigotes/mL of blood. In the maximum peak of parasitemia, blood was obtained by cardiac puncture using heparin as an anticoagulant. The parasite concentration was then adjusted with isotonic saline (0.85% NaCl), and 90 μL of blood was used to achieve a concentration of 1 × 10^6 trypomastigotes/mL of blood. A 10 μL sample of each compound was evaluated in 96-well plates. The treatments performed consisted of a negative control, which contained dimethylsulfoxide (DMSO 2.5%) and the four compounds selected from virtual screening. […] Once the selected compounds were added after being homogenized with blood, the plates were incubated at 4 °C for 24 h. Once the incubation time had elapsed, the plates were kept at room temperature for 30 min, and then an aliquot of 5 μL was taken from each well, a fresh preparation was made, and the viable trypomastigotes were counted using the Pizzi method. A calculation of the number of viable trypomastigotes per mL of blood was carried out, and the survival percentages were obtained taking 100% of the negative control. Each test was done in triplicate. […] The LC50 values were determined using Probit statistical analysis of the dose-response, and the results were expressed as the mean of the standard deviation. The results were later converted to micromolar units.

[2] = test system: T. cruzi INC-5 epimastigotes; assay: microbe, parasite or virus in culture; details: for CC50: Trypanosoma cruzi, read-out: LC50 Epimastigotes T. cruzi INC-5
Text: as §1

[3] = test system: T. cruzi INC-5 bloodstream trypomastigotes; assay: microbe, parasite or virus in culture; details: Trypanosoma cruzi, 24 h, read-out: LC50 Bloodstream Trypomastigotes T. cruzi INC-5
Text: as §1

[4] = molecular target: cysteine proteases from epimastigotes of Trypanosoma cruzi strain INC-5; assay: Enzyme inhibition, protease extract, substrate Z-Phe-Arg-MCA; assay type: biochemical; details: protein extract of INC-5 epimastigotes, Z-Phe-Arg-MCA 5 µM, compounds 6.25–200 µM, pH 6.5
Experimental: T. cruzi epimastigotes of the INC-5 strain were used to obtain a protein extract quantified by the Bradford method. Evaluation of the activity was carried out using the synthetic fluorogenic peptide Z-Phe-Arg-MCA as a substrate at 5 µM, with 1 μg of the enzyme extract and the corresponding compounds (Z2, Z3, Z5, and Z6) at different concentrations (6.25–200 µM) using a reaction buffer (50 mM Na2HPO4, 100 mM NaCl, 5 mM EDTA, 2.5 mM dithiothreitol; pH 6.5) at room temperature. As a negative control of enzyme inhibition, the substrate without compounds was evaluated with 2% DMSO (concentration corresponding to the highest dilution of the compounds). Hydrolysis of the substrate was monitored in a continuous assay for 1 h in the Spectramax M5 spectrofluorometer (Molecular Devices) at 380 nm excitation and 440 nm emission. The mean of fluorescence changes was normalized taking the control (without inhibitor) as 100%. The IC50 values were determined from semilog concentration-response plots using the nonlinear curve-fitting method.

[5] = activity previously reported for the compound; cited from earlier work
[6] = test system: trypomastigotes of T. cruzi of the Tulahúen strain in mouse fibroblasts (L929); design: method as in Ferreira et al. (2010) and Pinto et al. (2017); details: infected L929 fibroblasts, ref Ferreira et al. (2010) and Pinto et al. (2017); cited from earlier work
epimastigote = test system: epimastigote; design: method as in PMID 20961766; details: read-out: IC50 replication of the epimastigote; cited from earlier work

Row | SMILES | CC50 [1] | CC50 [2] | CC50 [3] | IC50 [4] | Activity Reported [5] | LC50 Epimastigotes T. cruzi INC-5 ([2]; half maximal lytic concentration, epimastigotes, INC-5 strain) | IC50 [6] | IC50 (epimastigote)
1 | C[C@H]1CCc2sc(-c3nnc(SCC(=O)N4N=C(c5ccco5)C[C@@H]4c4ccco4)o3)cc2C1 [Z3] | > 250 µM | > 250 µM | > 250 µM | 84.4 µM | – | – | – | –
2 | C[C@@H](Sc1nnc(C2CCCCC2)o1)C(=O)N1N=C(c2ccc(Cl)cc2)C[C@@H]1c1ccco1 [Z10] | – | – | – | – | Amine oxidase inhibitor | – | – | –
3 | Cc1nnc(SCC(=O)N2N=C(c3ccc4ccccc4c3)C[C@@H]2c2ccccc2)n(N)c1=O [Z5] | 166 ± 14.5 µM | 36.3 ± 9.9 µM | 185 ± 8.5 µM | 56.2 µM | Amine oxidase inhibitor | – | – | –
4 | Clc1ccc2[nH]c3c(NCCCN4CCOCC4)ncnc3c2c1 [S1, 8-chloro-N-(3-morpholinopropyl)-5H-pyrimido[5,4-b]-indol-4-amine, reference compound] | – | > 250 µM | > 250 µM | > 200 µM | – | did not show an effect | 2.5 µM | –
5 | Cc1ccc(NC(=O)CCC(=O)N2CCC(c3ccccc3)=N2)cc1S(=O)(=O)N1CCCCC1 [Z2] | > 250 µM | 239 ± 9.3 µM | > 250 µM | > 200 µM | Inhibitor of cannabinoid receptor type 2 | – | – | –
6 | COc1ccc([C@H]2CC(c3ccc4ccccc4c3)=NN2C(=O)Cn2cnc3ccsc3c2=O)cc1 [Z4] | – | – | – | – | Amine oxidase inhibitor | – | – | –
7 | O=C(CCC(=O)N1CCC(c2ccccc2)=N1)N1CCN(S(=O)(=O)c2ccc3c(c2)CCC3)CC1 [Z7] | – | – | – | – | Inhibitor of aldo keto reductases | – | – | –
8 | O=C(Cn1ccnc1[N+](=O)[O-])NCc1ccccc1 [Bzn, benznidazole, reference compound] | – | 9.64 ± 4.2 µM | 225 ± 26.5 µM | – | – | – | – | 1.8 µM
9 | Cc1ccc(C2=NN(C(=O)CN3C(=O)N[C@](C)(c4ccc(F)c(F)c4)C3=O)[C@H](c3ccco3)C2)cc1 [Z6] | > 250 µM | > 250 µM | > 250 µM | 50.4 µM | Amine oxidase inhibitor | – | – | –
10 | C[C@H](/C=C/C(=O)C=O)NC(=O)[C@@H](Cc1ccccc1)NC(=O)OCc1ccccc1 [compound 186, reference compound] | – | – | – | – | Cz inhibitor | – | – | –
11 | CN1N=C(C(=O)N2CCc3c(c(C(=O)N4CCOCC4)nn3CCCc3ccccc3)C2)CCC1=O [Z8] | – | – | – | – | Inhibitor of cathepsin S | – | – | –

From paper PMC6479639, “Structure-Based Virtual Screening and In Vitro Evaluation of New Trypanosoma cruzi Cruzain Inhibitors” (International Journal of Molecular Sciences, 2019)
